Test [1] concerns primary keratinocytes. As to the kind of experiment: Calcium imaging in primary keratinocytes. The following applies: primary keratinocytes; for calcium signals on repeated stimulation: repeated application (500 μM in FIG. 9). Type of test: cell-based, human. From the text: The Sandalore®-induced signal cascade in HaCaT cells and primary keratinocytes was pharmacologically characterized using the calcium imaging technique and specific blockers of signal cascade proteins. An investigation was first conducted in order to determine whether the calcium signals are caused by calcium inflow from the extracellular space. For this purpose, a calcium-free extracellular solution was used with a calcium chelator (EGTA) added. […] In order to investigate the role of adenylyl cyclase, the specific blockers SQ-22536 and MDL-12330A were used. […] The efficacy of the blockers was tested in this case with histamine, which activated the PLC signalling pathway (FIG. 11c).
Effect of the OR2AT4 ligand Sandalore® on intracellular calcium concentration of cultivated keratinocytes. […] 100 μM of ATP was used at the end of each measurement as a positive control stimulus. Right: Quantitative evaluation of calcium signals in 4-time application of Sandalore® (500 μM). Shown are the mean values of the individual applications including standard error. Mann-Whitney U test. *: p<0.05. C) and D): dose-dependent activation of HaCaT cells in calcium imaging experiments. Shown are the mean amplitudes including standard error at various concentrations in the first (C) and fourth (D) Sandalore® application. Number of cells measured: 0.0125 mM (39), 0.025 mM (30), 0.1 mM (46), 0.5 mM (34), 1 mM (63), 2 mM (41), 10 mM (36).
A) Representative calcium imaging traces of HaCaT cells (left) and primary keratinocytes (right) incubated with the gap junction blocker 1-octanol (500 μM) and then repeatedly stimulated with Sandalore® (500 μM, horizontal bars) (blue trace). […] 100 μM of ATP was used at the end of each measurement as a positive control stimulus. Quantitative evaluation of HaCaT cells (B) and primary keratinocytes (C) incubated with the gap junction blockers 1-octanol (500 μM) or carbenoxolone (10 μM) and then repeatedly stimulated with Sandalore® (500 μM) or Lyral (1 mM) in calcium imaging experiments. Shown are the mean values of the individual applications including standard error relative to the control measurements (Sandalore® application without blocker). Mann-Whitney U test. Number of cells measured: Sandalore®+1-octanol (HaCaT (110), keratinocytes (26)); Sandalore®+carbenoxolone: HaCaT (74); Lyral+carbenoxolone: HaCaT (43). ***: p<0.001.
Pharmacological characterization of Sandalore®-induced signal cascade in human keratinocytes. A)-D). Shown are representative calcium imaging traces of primary keratinocytes in the presence of a blocker (blue). The horizontal bars correspond to the application times. 100 μM of ATP was used at the end of each measurement as a positive control stimulus. A) Measurement with calcium-free extracellular solution (+10 mM EGTA). B) Measurement with the adenylyl cyclase blocker SQ-22536 (100 μM). C) Use of the phospholipase-C blocker U-73122 (10 μM). 100 μM of histamine was taken as a positive control. D) Measurement with the CNG channel blocker L-cis-diltiazem (150 μM). E) Overview of pharmacological measurement of HaCaT cells and primary keratinocytes (Kera). The mean amplitudes relative to the control measurements (dashed line) are indicated. MDL-12330A (40 μM). EGTA: calcium-free Ringer (HaCaT n=46, Kera n=52), SQ: SQ-22536 (HaCaT n=60, Kera n=26), MDL: MDL-12330A (HaCaT n=69, Kera n=24), U-73122 (HaCaT n=41, Kera n=25), L-cis-D.: L-cis-diltiazem (HaCaT n=41, Kera n=25). Mann-Whitney U test. ***: p<0.001. F) Determination of the cAMP contents of HaCaT cells after stimulation with Sandalore® by means of cAMP-Glo™ assays. The dots show the mean cAMP content including standard error after 10-minute Sandalore® stimulation (1 μM-10,000 μM). Significance was determined between HaCaT cells stimulated with Sandalore® and stimulated with an equivalent volume of DMSO (0.2%). Kruskal-Wallis Test with multiple comparison; n=3 experiments. *: p<0.05.

In test [2] the test system is primary keratinocytes. Kind of test: In vitro wound scratch assay, primary keratinocytes. The following applies: 500 μM, observed for two days. In kind it is cell-based, human. From the text: The MAP kinases p38 and ERK1/2 are often associated with increased proliferation and migration in epidermal wound healing. For this reason, in a further physiological experiment, the effect of Sandalore® on “wound healing” of a confluent cell layer of HaCaT cells or primary keratinocytes was investigated. For this purpose, the wound scratch assay was used, which is an established in vitro method for initial investigations of wound healing processes in keratinocytes.
Effect of Sandalore® stimulation on human keratinocytes in an in vitro “wound healing” assay. Investigation of the “wound healing rate” of A) primary keratinocytes and B) HaCaT cells by means of a wound scratch assay in the presence of Sandalore® (500 μM) or 0.1% DMSO as a control. Left: Transmitted light images of the “wound” observed at various times. The growth margin of the cells was surrounded in black. Scale: 200 μm. Right: Quantitative evaluation of the wound scratch assay. The areas of the wounds were measured and compared to the initial wound (0 h). Mean values including standard error. Mann-Whitney U test; n=4 experiments. *: p<0.05; ***: p<0.001. […] The measured wound areas of the treated cells (after 48-hour stimulation) were compared to the control (0.1% DMSO). […] The measured wound areas of the treated cells were compared to the control (0.1% DMSO). […]

Entries after “also recorded” stand apart in the source; their conditions may differ.

Consider `CC1=CCC(CCC(C)CO)C1(C)C` (stereo not drawn) [Brahmanol®], for which the “calcium signals on repeated stimulation” value in the test with primary keratinocytes [1] is given as “significant sensitization”. In the test with primary keratinocytes [2], the “faster closing of the scratch” value is reported as 34%.
On to `CC1=CCC(CCC(C)C(C)O)C1(C)C` (stereo not drawn) [Sandalore®], for which the “share of cells repeatedly stimulated” value with primary keratinocytes [1] (calcium imaging) is listed as 80-90%. The “calcium signals on repeated stimulation” value in the test on primary keratinocytes [1] was “significant sensitization; also recorded: induced calcium signals”; with primary keratinocytes [1] (listed as Sandalore), “significant sensitization”. For the same compound, the “faster closing of the scratch” value in the test with primary keratinocytes [2] is recorded as 34%.

The record behind these values is patent US10835500B2, “Medicament for accelerated wound healing” (Symrise AG, priority 2014, dated 2020).
